Results: article PMC11141866, “Pyrimidine depletion enhances targeted and immune therapy combinations in acute myeloid leukemia” (JCI Insight, 2024)
pIC50: −log10 of the molar value. Converted amounts (≈) assume the structure as drawn. “And” between values parts separate entries of the source, which are not always exact repeats. Equal values may be shown once. Read-outs that look alike come from different tables or passages of the source.

Columns and labels:
[1] = target: Mouse DHODH (Mus musculus, UniProt O35435); test: Cell-free multi-species DHODH enzyme inhibition assay, mouse; assay type: biochemical; conditions: n=1
Sequence of Mouse DHODH (O35435 whole entry): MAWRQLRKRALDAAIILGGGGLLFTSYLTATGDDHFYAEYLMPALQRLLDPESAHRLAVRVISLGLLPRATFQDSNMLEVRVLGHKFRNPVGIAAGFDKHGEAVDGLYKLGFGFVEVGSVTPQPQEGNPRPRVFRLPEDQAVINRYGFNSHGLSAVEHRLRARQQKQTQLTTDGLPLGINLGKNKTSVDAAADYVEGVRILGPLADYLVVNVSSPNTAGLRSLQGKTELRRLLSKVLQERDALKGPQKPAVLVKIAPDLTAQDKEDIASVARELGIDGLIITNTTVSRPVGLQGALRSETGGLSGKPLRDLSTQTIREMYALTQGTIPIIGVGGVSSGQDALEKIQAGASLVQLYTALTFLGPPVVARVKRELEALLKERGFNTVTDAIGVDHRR

[2] = test system: primary AML samples; test: Flow cytometry CD38 surface expression, primary AML samples; assay type: cell-based, human; conditions: for CD38 MFI: 50nM
Method: Cells were thawed in 50% FBS RPMI and then cultured in StemSpan (StemCell Technologies) media supplemented with human FLT3L, SCF, GM-CSF, G-CSF, IL-3, IL-6, TPO, and EPO cytokines for 7 days (LTC).
After 72 hours or 7 days of treatment of DHODHi, cells were collected and washed with PBS, blocked with human Fc block (BioLegend), and stained with antibodies for 30 minutes on ice. Antibodies were washed off and cells resuspended in FACS buffer (2% FBS, 2 mM NaN3, Dulbecco’s PBS) for analysis using BD LSRFortessa or Cytek Aurora spectral flow cytometer. Live/dead exclusion was done using LIVE/DEAD Fixable Near-IR (Invitrogen). All antibodies were purchased from BioLegend except CD47, which was purchased from BD Biosciences: CD11b clone M1/70, CD38 clone HIT2, CD14 clone M5E2, CD47 clone B6H12, CD33 clone WM53, CD3 clone UCHT1, CD19 clone HIB19, and CD45 clone HI30.

[3] = Thermodynamic solubility; assay type: physicochemical; conditions: thermodynamic from solid
Description: Supplement jciinsight-9-173646-s083.xlsx, sheet "Supplemental Table S.2." | column: HOSU-53

[4] = target: T1, human DHODH (hDHODH, amino acid residues 31-395) (Homo sapiens, UniProt Q02127); test: Cell-free human DHODH enzyme inhibition assay; assay type: biochemical
T1 construct: purchased Reaction Biology (assay run there as a service)
T1 sequence (Q02127 31-395): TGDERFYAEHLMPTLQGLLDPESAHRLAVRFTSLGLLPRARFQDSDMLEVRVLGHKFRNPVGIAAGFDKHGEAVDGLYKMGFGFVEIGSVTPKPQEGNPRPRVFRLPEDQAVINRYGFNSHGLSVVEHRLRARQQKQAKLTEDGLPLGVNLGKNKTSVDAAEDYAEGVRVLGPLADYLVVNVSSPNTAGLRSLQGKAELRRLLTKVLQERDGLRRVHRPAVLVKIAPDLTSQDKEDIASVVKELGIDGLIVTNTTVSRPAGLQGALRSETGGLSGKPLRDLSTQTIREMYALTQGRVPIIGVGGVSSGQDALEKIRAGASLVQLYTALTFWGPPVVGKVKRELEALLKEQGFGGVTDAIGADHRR
Method: Details are described in the Supplemental Methods. […]
Enzyme inhibition of human DHODH […]
performed at Reaction Biology (Malvern, PA, USA). Briefly, a two-step fluorescence-based assay was used to test compounds in duplicates using a 10-dose IC50 mode with 3-fold serial dilution starting at 1 µM or 10 µM. The enzymatic step for hDHODH (used at […]
to orotate and followed by resazurin (used at 60 or 80 µM per reaction) catalyzed to […]
resorufin. […]

[5] = test system: MOLM-13 disseminated CDX AML model; test: MOLM-13 CDX efficacy study correlated with PK/PD (survival); assay type: in vivo
Method: Male 8- to 12-week-old NCG mice were engrafted with 1 × 10^5 cells via tail vein i.v. injection. Four days after engraftment (day 1 of treatment), mice (n = 9–10/arm) were randomized to receive p.o. qd vehicle (40% HPβCD) or p.o. qd HOSU-53 at 4, 10, and 20 mg/kg or 30 mg/kg biwk till moribundity or end of study, day 73. An additional study was done for PK/PD correlation with the survival study where 9 mice per group were randomized to receive p.o. qd vehicle (40% HPβCD) or p.o. qd HOSU-53 at 4, 10, and 20 mg/kg or 30 mg/kg biwk till day 14. Mice were bled for plasma collection to analyze HOSU-53 and DHO concentrations 1 day after the first dose and on day 14 for cumulative plasma concentration analysis. Figure 3B and Figure 4, A and B, share the same vehicle group.

[6] = test system: plasma DHO; test: DHO plasma accumulation in MOLM-13 tumor-bearing mice; assay type: in vivo, NCG mice; set-up: unit not given here; conditions: male mice, per mouse
Method: Male 8- to 12-week-old NCG mice were engrafted with 1 × 10^5 cells via tail vein i.v. injection. […] Figure 3B and Figure 4, A and B, share the same vehicle group. page 6: Plasma samples were obtained following appropriate dosing administration and saved in the -80°C freezer till the time of analysis. Analyses by LC-MS/MS followed sample extraction by protein precipitation and separation by Ultra Performance Liquid Chromatography (UPLC, Waters Corporation, MA, USA) using a C18 column, 1.7um, 2.1x50mm, Mobile Phase A: 5:95:0.1 (v:v:v) Acetonitrile:Water:Formic Acid, Mobile Phase B: 50:50:0.1 (v:v:v) Methanol:Acetonitrile:Formic Acid. MS/MS analyses were performed on an API-6500 (Absciex MA, USA) in positive mode using an electrospray source at 550°C. The internal standard was d4-AEA monitored at 352.2 and 66.0 m/z transitions and the target analyte, HOSU-53, was monitored at 416.5 and 331.1 m/z transitions. The assay was qualified between 10-5,000 ng/ml HOSU53 to be within ±20% for QCs above the LLOQ in this range and ±25% at the LLOQ. DHO concentration quantification in mouse plasma samples. Plasma samples were obtained following appropriate dosing administration and saved in the -80°C freezer till the time of analysis. Analyses by LC-MS/MS followed sample extraction by protein precipitation and separation by Ultra Performance Liquid Chromatography (UPLC, Waters Corporation, MA, USA) using a Phenomenex Aqua C18 100x4.6mm, 3uM, […], Mobile Phase A: 100:0.1 (v:v) Water:Formic Acid, Mobile Phase B: 100:0.1 (v:v) Methanol:Formic Acid. MS/MS analyses were performed on an API-4000 (Absciex MA, USA) in negative mode using an electrospray source at 550°C. The internal standard was labeled 13C14_L-Dihydroorotic Acid monitored at 161.3 and 117.1 m/z transitions and the target analyte, L-Dihydroorotic Acid (DHO), was monitored at 157.0 and 70.0 m/z transitions. The assay was qualified between 10.0-30,000 ng/ml DHO to be within ±20% for QCs above the LLOQ in this range and ±25% at the LLOQ.

Q: With `CCCCOc1cccc(-c2ccc(-c3cc(C(=O)O)c4cc(F)ccc4n3)cc2)c1` [HOSU-53] as the compound, how does the pIC50 [1] read?
A: 8.68

Q: And the “CD38 MFI” value ([2]; Pt.12, DMSO 824.62)?
A: 1062.2

Q: And the “CD38 MFI” value ([2]; Pt.13, DMSO 803.93)?
A: 707.33

Q: And the “CD38 MFI” value ([2]; Pt.14, DMSO 15.61)?
A: 21.18

Q: What about the “CD38 MFI” value ([2]; Pt.15, DMSO 168) of the same compound?
A: 782.96

Q: What about the “CD38 MFI” value ([2]; Pt.16, DMSO 274.9) of the same compound?
A: 277.67

Q: What about the “CD38 MFI” value ([2]; Pt.17, DMSO 1637.55) of the same compound?
A: 2440.33

Q: And the “CD38 MFI” value ([2]; Pt.18, DMSO 74.26)?
A: 85.51

Q: And the “CD38 MFI” value ([2]; Pt.19, DMSO 997.1)?
A: 2400.6

Q: What about the “CD38 MFI” value ([2]; Pt.20, DMSO 193.57) of the same compound?
A: 291.28

Q: And the “CD38 MFI” value ([2]; Pt.2, DMSO 150.75)?
A: 197

Q: What about the CD38 surface expression ([2]; primary AML samples treated in vitro) of the same compound?
A: variable increase

Q: And the solubility thermodynamic ([3]; FaSSIF, heading: Thermodynamic solubility FaSSIF)?
A: 43 µM (≈ 17.9 µg/mL)

Q: What about the solubility thermodynamic ([3]; FeSSIF, heading: Thermodynamic solubility FeSSIF) of the same compound?
A: 373 µM (≈ 155 µg/mL)

Q: And the solubility thermodynamic ([3]; SGF, simulated gastric fluid, heading: Thermodynamic solubility SGF)?
A: < 1.56 µM

Q: What about the pIC50 ([4]; cell-free multi-species assay, n=1, read-out: DHODH IC50 Human) of the same compound?
A: 9.16

Q: And the pIC50 ([4]; cell-free, HOSU-53, BAY, BRQ averaged from 6, 10, 4 replicates, read-out: hDHODH IC50)?
A: 9.02

Q: What about the median survival ([5]; 10 mg/kg daily p.o.) of the same compound?
A: 55 days

Q: And the tolerability ([5]; 20 mg/kg daily p.o.)?
A: intolerable in approximately half the mice

Q: What about the median survival ([5]; 30 mg/kg twice weekly p.o.) of the same compound?
A: 48 days

Q: What about the tolerability ([5]; 30 mg/kg twice weekly p.o.) of the same compound?
A: well tolerated

Q: And the “Survival, day of study at event (per animal)” value (“Survival, day … (per animal)” for short) ([5]; 4 mpk poqd)?
A: 44 days and 46 days and 43 days and 45 days and 36 days

Q: And the “Survival, day … (per animal)” value ([5]; 10mpk poqd)?
A: 55 days and 52 days and 47 days and 60 days and 59 days and 49 days and 63 days and 58 days

Q: What about the “Survival, day … (per animal)” value ([5]; 20mpk poqd, flag 0 = censored) of the same compound?
A: ≥ 73 days and 69 days and 46 days and 41 days and 40 days and 71 days and 11 days and 31 days

Q: What about the “Survival, day … (per animal)” value ([5]; 30mpk biwk) of the same compound?
A: 50 days and 43 days and 42 days and 48 days and 46 days and 52 days and 44 days and 49 days

Q: And the “DHO AUC (Figure 3C y value)” value ([6]; Day 1, 4 mpk PO, 4 mg/kg)?
A: 21.3526 and 23.5341 and 32.163

Q: What about the “DHO AUC (Figure 3C y value)” value ([6]; Day 1, 10 mpk PO, 10 mg/kg) of the same compound?
A: 124.368 and 142.962

Q: And the “DHO AUC (Figure 3C y value)” value ([6]; Day 1, 20 mpk PO, 20 mg/kg)?
A: 335.03 and 368.431

Q: What about the “DHO AUC (Figure 3C y value)” value ([6]; Day 1, 30 mpk PO, 30 mg/kg) of the same compound?
A: 473.057 and 298.48 and 280.181

Q: What about the “DHO AUC (Figure 3C y value)” value ([6]; Day 14, 4 mpk PO, 4 mg/kg) of the same compound?
A: 78.3977 and 135.263 and 128.423

Q: And the “DHO AUC (Figure 3C y value)” value ([6]; Day 14, 10 mpk PO, 10 mg/kg)?
A: 243.197 and 313.781 and 310.505

Q: What about the “DHO AUC (Figure 3C y value)” value ([6]; Day 14, 20 mpk PO, 20 mg/kg) of the same compound?
A: 796.864 and 742.741 and 1170.82

Q: What about the “DHO AUC (Figure 3C y value)” value ([6]; Day 14, 30 mpk PO, 30 mg/kg) of the same compound?
A: 464.129 and 594.047 and 535.223
